Measured values from patent US6069132A, “Phosphazole compounds” (priority 1997, dated 2000).

Experiments:
[1] = test system: TNFα; test: Inhibition of TNFα in LPS-stimulated PBMCs; format: cell-based, human; settings: for inhibition at 10 µg/mL / inhibition at 50 µg/mL / inhibition at 100 µg/mL / inhibition at 250 µg/mL: Homo sapiens, PBMC; for inhibition at 10 µg/mL: 10 μg/ml; for inhibition at 50 µg/mL: 50 μg/ml; for inhibition at 100 µg/mL: 100 μg/ml; for inhibition at 250 µg/mL: 250 μg/ml
Description: (§1) Primary cell assays. Primary human peripheral blood mononuclear cells (PBMCS) were isolated as described by Ojwang et al. (114). Isolated monocytes were added to 24-well cluster plates (Costar, Cambridge, Mass.) at a concentration of 1×10^5 viable cells per well. Culture medium or test material dilutions in culture medium were added to the wells, the plates were then incubated at 37° C. for one hour. […] The plates were incubated an additional 4, 24 or 48 hours. The supernatant fluids were then harvested and centrifuged to pellet cells or cellular debris, and the supernatant fluids were stored at -70° C. until they were assayed for the presence of TNFα using a commercially available ELISA kit, such as that described in Example 46.

[2] = test system: IL-1β; test: Inhibition of IL-1β in LPS-stimulated PBMCs; format: cell-based, human; settings: for inhibition at 10 µg/mL / inhibition at 50 µg/mL / inhibition at 100 µg/mL / inhibition at 250 µg/mL: Homo sapiens, PBMC; for inhibition at 10 µg/mL: 10 μg/ml; for inhibition at 50 µg/mL: 50 μg/ml; for inhibition at 100 µg/mL: 100 μg/ml; for inhibition at 250 µg/mL: 250 μg/ml
Description: The phosphazole T70241 was further evaluated for its activity against IL-1β in PBMCs stumulated with LPS and aliquotes collected after 4, 24 and 48 hour post-stimulation.
as §1

Q: Which results are given for `Nc1ncnc2pc[nH]c12` (centres unmarked) [T70241, 7-amino-1H-1,3-azaphospholo[4,5-d]pyrimidine]?
A: TNFα production in PBMCs ([1]; 48 hours post-LPS induction): significantly reduce the levels of TNFα production in the PBMCs; inhibition at 10 µg/mL ([1]; 4 h): 0%; inhibition at 10 µg/mL ([1]; 24 h): -3%; inhibition at 10 µg/mL ([1]; 48 h): -9%; inhibition at 50 µg/mL ([1]; 4 h): 50%; inhibition at 50 µg/mL ([1]; 24 h): 58%; inhibition at 50 µg/mL ([1]; 48 h): 51%; inhibition at 100 µg/mL ([1]; 4 h): 76%; inhibition at 100 µg/mL ([1]; 24 h): 81%; inhibition at 100 µg/mL ([1]; 48 h): 79%; inhibition at 250 µg/mL ([1]; 4 h): 76%; inhibition at 250 µg/mL ([1]; 24 h): 84%; inhibition at 250 µg/mL ([1]; 48 h): 82%; inhibition at 10 µg/mL ([2]; 4 h): 18%; inhibition at 10 µg/mL ([2]; 24 h): 6%; inhibition at 10 µg/mL ([2]; 48 h): 4%; inhibition at 50 µg/mL ([2]; 4 h): 86%; inhibition at 50 µg/mL ([2]; 24 h): 24%; inhibition at 50 µg/mL ([2]; 48 h): 36%; inhibition at 100 µg/mL ([2]; 4 h): 98%; inhibition at 100 µg/mL ([2]; 24 h): 78%; inhibition at 100 µg/mL ([2]; 48 h): 70%; inhibition at 250 µg/mL ([2]; 4 h): 99.7%; inhibition at 250 µg/mL ([2]; 24 h): 86%; inhibition at 250 µg/mL ([2]; 48 h): 75%; inhibition of IL-1β in PBMCs ([2]; up to 48 hour): inhibited IL-1β up to 48 hour in a dose dependent fashion
